# Test results published in PubChem BioAssay (NCI).
#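 In this assay, cells in 96-well plates receive the compound at five concentrations for 48 hours. Endpoints are linearly interpolated between the surrounding concentrations. At the TGI there is no net growth.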
# Key:
# Test in all cases: NCI tumour cell line growth inhibition, 48 h
# MALME-3M melanoma = test system: MALME-3M melanoma
# RXF-631 renal = test system: RXF-631 renal
# MOLT-4 leukemia = test system: MOLT-4 leukemia
# DMS 114 small cell lung = test system: DMS 114 small cell lung
# U251 CNS = test system: U251 CNS
# EKVX NSCLC = test system: EKVX NSCLC
# SK-MEL-2 melanoma = test system: SK-MEL-2 melanoma
# DMS 273 small cell lung = test system: DMS 273 small cell lung
# SF-268 CNS = test system: SF-268 CNS
# OVCAR-3 ovarian = test system: OVCAR-3 ovarian
# LXFL 529 NSCLC = test system: LXFL 529 NSCLC
# M14 melanoma = test system: M14 melanoma
# HCC-2998 colon = test system: HCC-2998 colon
# LOX IMVI melanoma = test system: LOX IMVI melanoma
# SNB-78 CNS = test system: SNB-78 CNS
# NCI-H460 lung = test system: NCI-H460 lung
# XF 498 CNS = test system: XF 498 CNS
# KM20L2 colon = test system: KM20L2 colon
# SK-OV-3 ovarian = test system: SK-OV-3 ovarian
# COLO 205 colon = test system: COLO 205 colon
# UACC-257 melanoma = test system: UACC-257 melanoma
# OVCAR-4 ovarian = test system: OVCAR-4 ovarian
# UO-31 renal = test system: UO-31 renal
# SW-620 colon = test system: SW-620 colon
# CCRF-CEM leukemia = test system: CCRF-CEM leukemia
# HOP-18 NSCLC = test system: HOP-18 NSCLC
# IGROV1 ovarian = test system: IGROV1 ovarian
# OVCAR-8 ovarian = test system: OVCAR-8 ovarian
# SNB-75 CNS = test system: SNB-75 CNS
# OVCAR-5 ovarian = test system: OVCAR-5 ovarian
# HOP-62 NSCLC = test system: HOP-62 NSCLC
# SF-295 CNS = test system: SF-295 CNS
# DLD-1 colon = test system: DLD-1 colon
# HCT-116 colon = test system: HCT-116 colon
# K-562 leukemia = test system: K-562 leukemia
# 786-0 renal = test system: 786-0 renal
# NCI-H226 lung = test system: NCI-H226 lung
# HCT-15 colon = test system: HCT-15 colon
# SF-539 CNS = test system: SF-539 CNS
# RPMI-8226 leukemia = test system: RPMI-8226 leukemia
# HL-60(TB) leukemia = test system: HL-60(TB) leukemia
# KM12 colon = test system: KM12 colon
# M19-MEL melanoma = test system: M19-MEL melanoma
# HT29 colon = test system: HT29 colon
# CAKI-1 renal = test system: CAKI-1 renal
# NCI-H23 lung = test system: NCI-H23 lung
# TK-10 renal = test system: TK-10 renal
# SNB-19 CNS = test system: SNB-19 CNS
# ACHN renal = test system: ACHN renal
# SK-MEL-5 melanoma = test system: SK-MEL-5 melanoma
# NCI-H522 lung = test system: NCI-H522 lung
# SR leukemia = test system: SR leukemia
# A549 NSCLC = test system: A549 NSCLC
# UACC-62 melanoma = test system: UACC-62 melanoma
# HOP-92 NSCLC = test system: HOP-92 NSCLC
# SK-MEL-28 melanoma = test system: SK-MEL-28 melanoma
# SN12C renal = test system: SN12C renal
# P388 leukemia = test system: P388 leukemia
# P388/ADR leukemia = test system: P388/ADR leukemia
# SN12K1 renal = test system: SN12K1 renal
# NCI/ADR-RES ovarian = test system: NCI/ADR-RES ovarian
# A498 renal = test system: A498 renal
# RXF 393 renal = test system: RXF 393 renal
# MCF7 breast = test system: MCF7 breast
structure (smiles),measurement,setting,value
CCOC(=O)C1C(=O)c2ccccc2CN1Cc1ccccc1 (stereo not drawn),TGI,MALME-3M melanoma,> 100 µM
same,TGI,RXF-631 renal,> 100 µM
same,TGI,MOLT-4 leukemia,> 100 µM
same,TGI,DMS 114 small cell lung,> 100 µM
same,TGI,U251 CNS,> 100 µM
same,TGI,EKVX NSCLC,> 100 µM
same,TGI,SK-MEL-2 melanoma,> 100 µM
same,TGI,DMS 273 small cell lung,> 100 µM
same,TGI,SF-268 CNS,> 100 µM
same,TGI,OVCAR-3 ovarian,> 100 µM
same,TGI,LXFL 529 NSCLC,> 100 µM
same,TGI,M14 melanoma,> 100 µM
same,TGI,HCC-2998 colon,> 100 µM
same,TGI,LOX IMVI melanoma,> 100 µM
same,TGI,SNB-78 CNS,> 100 µM
same,TGI,NCI-H460 lung,> 100 µM
same,TGI,XF 498 CNS,> 100 µM
same,TGI,KM20L2 colon,> 100 µM
same,TGI,SK-OV-3 ovarian,> 100 µM
same,TGI,COLO 205 colon,> 100 µM
same,TGI,UACC-257 melanoma,> 100 µM
same,TGI,OVCAR-4 ovarian,> 100 µM
same,TGI,UO-31 renal,> 100 µM
same,TGI,SW-620 colon,> 100 µM
same,TGI,CCRF-CEM leukemia,> 100 µM
same,TGI,HOP-18 NSCLC,> 100 µM
same,TGI,IGROV1 ovarian,> 100 µM
same,TGI,OVCAR-8 ovarian,> 100 µM
same,TGI,SNB-75 CNS,> 100 µM
same,TGI,OVCAR-5 ovarian,> 100 µM
same,TGI,HOP-62 NSCLC,> 100 µM
same,TGI,SF-295 CNS,> 100 µM
same,TGI,DLD-1 colon,> 100 µM
same,TGI,HCT-116 colon,> 100 µM
same,TGI,K-562 leukemia,> 100 µM
same,TGI,786-0 renal,> 100 µM
same,TGI,NCI-H226 lung,> 100 µM
same,TGI,HCT-15 colon,> 100 µM
same,TGI,SF-539 CNS,> 100 µM
same,TGI,RPMI-8226 leukemia,> 100 µM
same,TGI,HL-60(TB) leukemia,> 100 µM
same,TGI,KM12 colon,> 100 µM
same,TGI,M19-MEL melanoma,> 100 µM
same,TGI,HT29 colon,> 100 µM
same,TGI,CAKI-1 renal,> 100 µM
same,TGI,NCI-H23 lung,> 100 µM
same,TGI,TK-10 renal,> 100 µM
same,TGI,SNB-19 CNS,> 100 µM
same,TGI,ACHN renal,> 100 µM
same,TGI,SK-MEL-5 melanoma,> 100 µM
same,TGI,NCI-H522 lung,> 100 µM
same,TGI,SR leukemia,> 100 µM
same,TGI,A549 NSCLC,> 100 µM
same,TGI,UACC-62 melanoma,> 100 µM
same,TGI,HOP-92 NSCLC,> 100 µM
same,TGI,SK-MEL-28 melanoma,> 100 µM
same,TGI,SN12C renal,> 100 µM
COc1cccc(-c2nc3c(C(=O)NCCN(C)C)cccc3[nH]2)c1,TGI,MALME-3M melanoma,27.6 µM
same,TGI,P388 leukemia,22.2 µM
same,TGI,MOLT-4 leukemia,24.4 µM
same,TGI,DMS 114 small cell lung,30.7 µM
same,TGI,U251 CNS,> 61.6 µM
same,TGI,EKVX NSCLC,97.5 µM
same,TGI,SK-MEL-2 melanoma,34.4 µM
same,TGI,DMS 273 small cell lung,39.7 µM
same,TGI,SF-268 CNS,> 41.7 µM
same,TGI,OVCAR-3 ovarian,> 75.9 µM
same,TGI,P388/ADR leukemia,41.9 µM
same,TGI,HCC-2998 colon,30.8 µM
same,TGI,LOX IMVI melanoma,34.9 µM
same,TGI,SNB-78 CNS,> 100 µM
same,TGI,NCI-H460 lung,34.6 µM
same,TGI,KM20L2 colon,39 µM
same,TGI,SK-OV-3 ovarian,69.5 µM
same,TGI,COLO 205 colon,23.1 µM
same,TGI,UACC-257 melanoma,31.3 µM
same,TGI,OVCAR-4 ovarian,84.6 µM
same,TGI,UO-31 renal,29.1 µM
same,TGI,SW-620 colon,> 54.6 µM
same,TGI,SN12K1 renal,30.7 µM
same,TGI,CCRF-CEM leukemia,> 81.6 µM
same,TGI,HOP-18 NSCLC,62.6 µM
same,TGI,IGROV1 ovarian,53.9 µM
same,TGI,NCI/ADR-RES ovarian,44.1 µM
same,TGI,OVCAR-8 ovarian,> 58.4 µM
same,TGI,SNB-75 CNS,68.1 µM
same,TGI,A498 renal,32.1 µM
same,TGI,OVCAR-5 ovarian,42.7 µM
same,TGI,HOP-62 NSCLC,33.2 µM
same,TGI,SF-295 CNS,47.6 µM
same,TGI,DLD-1 colon,63.1 µM
same,TGI,HCT-116 colon,44.2 µM
same,TGI,K-562 leukemia,> 70.9 µM
same,TGI,NCI-H226 lung,35.7 µM
same,TGI,RXF 393 renal,56.7 µM
same,TGI,HCT-15 colon,41.6 µM
same,TGI,SF-539 CNS,41.4 µM
same,TGI,RPMI-8226 leukemia,46.3 µM
same,TGI,HL-60(TB) leukemia,41.2 µM
same,TGI,KM12 colon,> 72 µM
same,TGI,M19-MEL melanoma,30.3 µM
same,TGI,HT29 colon,42 µM
same,TGI,CAKI-1 renal,> 96 µM
same,TGI,NCI-H23 lung,50.8 µM
same,TGI,SNB-19 CNS,> 100 µM
same,TGI,SK-MEL-5 melanoma,31.5 µM
same,TGI,NCI-H522 lung,34 µM
same,TGI,A549 NSCLC,46.2 µM
same,TGI,UACC-62 melanoma,31.8 µM
same,TGI,HOP-92 NSCLC,46.7 µM
same,TGI,SK-MEL-28 melanoma,31.4 µM
same,TGI,SN12C renal,> 70.6 µM
same,TGI,MCF7 breast,> 100 µM
